# Data: patent US6989371B1, “Bombesin analogs for treatment of cancer” (Dabur Research Foundation, priority 1996, dated 2006)
# Non-standard residues stand in square brackets, D forms with d. Residues, ends and D or L forms follow the SMILES beside them. Deg = CCC(N)(CC)C(=O)O
# How the values were obtained:
# Assay in all cases: MTT cytotoxicity assay, 48 hours (Example 14)
# HBL 100 (Breast) = type: cell-based, human
# Description: (§1) The cytotoxic effect of peptide sequences SEQ ID NO: 9, SEQ ID NO: 10, SEQ ID NO: 11 and SEQ ID NO: 12, were studied by MTT assay which is based on the principle of uptake of MTT[3-[4,5-dimethylthiazol-2-yl]-2,5-diphenyl tetrazolium bromide], a tetrazolium salt by the metabolically active cells where it is metabolized by active mitochondria into a blue colored formazan product which can be read spectrophotometrically. Tumor cells KB (oral squamous). HuTu80 (Stomach), PTC and SW620 (colon), U87MG (Glioblastoma), HBL 100. (Breast), HeP2 (laryngeal) and L132 (Lung) were incubated with the peptide analogs for 48 hours at 37° C. in a 96-well culture plate, followed by the addition of 100 μl MTT and further incubation of 1 hour. The formazon crystals formed inside the cells were dissolved with a detergent comprising 10% Sodium dodecyl sulfate and 0.01 N HCl and optical density read on a multiscan ELISA reader. The optical density was directly proportional to the number of proliferating and metabolically active cells.
# HuTu80 (Stomach) = type: cell-based, human
# Description: as §1
# KB (oral squamous) = type: cell-based, human
# Description: as §1
# PTC (colon) = type: cell-based, human
# Description: as §1
# SW620 (colon) = type: cell-based, human
# Description: as §1
# HeP2 (laryngeal) = type: cell-based
# Description: as §1
# L132 (Lung) = type: cell-based
# Description: as §1
# U87MG (Glioblastoma) = type: cell-based
# Description: as §1
smiles,measurement,setting,value
"CCC(CC)(NC(=O)[C@H](Cc1c[nH]c2ccccc12)NC(=O)[C@H](CCC(N)=O)NC(=O)[C@H](N)Cc1ccccc1)C(=O)N[C@H](C(=O)NCC(=O)N[C@@H](Cc1c[nH]cn1)C(=O)N[C@@H](CC(C)C)C(N)=O)C(C)C [SEQ ID: 9, D-Phe-Gln-Trp-Deg-Val-Gly-His-Leu-NH2] (H-[dF]QW[Deg]VGHL-NH2; N-terminus assumed)",Percentage cytotoxicity,"HBL 100 (Breast); HBL100, 10 pM",17.2 ± 0.1%
same,Percentage cytotoxicity,"HBL 100 (Breast); HBL100, 100 pM",28.6 ± 2.2%
same,Percentage cytotoxicity,"HBL 100 (Breast); HBL100, 1 nM",34.1 ± 1.8%
same,Percentage cytotoxicity,"HBL 100 (Breast); HBL100, 10 nM",28.1 ± 0.6%
same,Percentage cytotoxicity,"HBL 100 (Breast); HBL100, 100 nM",22.4 ± 1.7%
same,Percentage cytotoxicity,"HBL 100 (Breast); HBL100, 1 μM",17.2 ± 0.4%
same,Percentage cytotoxicity,"HuTu80 (Stomach); HuTu80, 10 pM",19.5 ± 0.4%
same,Percentage cytotoxicity,"HuTu80 (Stomach); HuTu80, 100 pM",23.8 ± 2.8%
same,Percentage cytotoxicity,"HuTu80 (Stomach); HuTu80, 1 nM",28.0 ± 1.8%
same,Percentage cytotoxicity,"HuTu80 (Stomach); HuTu80, 10 nM",23.5 ± 2.9%
same,Percentage cytotoxicity,"HuTu80 (Stomach); HuTu80, 100 nM",13.5 ± 2.1%
same,Percentage cytotoxicity,"HuTu80 (Stomach); HuTu80, 1 μM",14.2 ± 0.6%
same,Percentage cytotoxicity,KB (oral squamous); 10 pM,20.6 ± 4.1%
same,Percentage cytotoxicity,KB (oral squamous); 100 pM,26.9 ± 2.9%
same,Percentage cytotoxicity,KB (oral squamous); 1 nM,32.6 ± 3.7%
same,Percentage cytotoxicity,KB (oral squamous); 10 nM,23.0 ± 2.1%
same,Percentage cytotoxicity,KB (oral squamous); 100 nM,20.8 ± 1.7%
same,Percentage cytotoxicity,KB (oral squamous); 1 μM,10.4 ± 1.6%
same,Percentage cytotoxicity,PTC (colon); 10 pM,22.4 ± 2.2%
same,Percentage cytotoxicity,PTC (colon); 100 pM,24.5 ± 3.9%
same,Percentage cytotoxicity,PTC (colon); 1 nM,25.6 ± 5.1%
same,Percentage cytotoxicity,PTC (colon); 10 nM,26.8 ± 3.8%
same,Percentage cytotoxicity,PTC (colon); 100 nM,19.5 ± 4.1%
same,Percentage cytotoxicity,PTC (colon); 1 μM,10.3 ± 0.9%
same,Percentage cytotoxicity,"SW620 (colon); SW620, 10 pM",15.1 ± 0.3%
same,Percentage cytotoxicity,"SW620 (colon); SW620, 100 pM",28.9 ± 0.2%
same,Percentage cytotoxicity,"SW620 (colon); SW620, 1 nM",30.8 ± 0.6%
same,Percentage cytotoxicity,"SW620 (colon); SW620, 10 nM",33.2 ± 2.9%
same,Percentage cytotoxicity,"SW620 (colon); SW620, 100 nM",25.8 ± 2.8%
same,Percentage cytotoxicity,"SW620 (colon); SW620, 1 μM",21.6 ± 2.1%
same,Percentage cytotoxicity,"HeP2 (laryngeal); HeP2, 10 pM",0.0 ± 0.0%
same,Percentage cytotoxicity,"HeP2 (laryngeal); HeP2, 100 pM",14.6 ± 0.6%
same,Percentage cytotoxicity,"HeP2 (laryngeal); HeP2, 1 nM",21.3 ± 2.2%
same,Percentage cytotoxicity,"HeP2 (laryngeal); HeP2, 10 nM",28.5 ± 3.1%
same,Percentage cytotoxicity,"HeP2 (laryngeal); HeP2, 100 nM",17.8 ± 0.3%
same,Percentage cytotoxicity,"HeP2 (laryngeal); HeP2, 1 μM",21.6 ± 1.8%
same,Percentage cytotoxicity,"L132 (Lung); L132, 10 pM",0.0 ± 0.0%
same,Percentage cytotoxicity,"L132 (Lung); L132, 100 pM",22.4 ± 0.8%
same,Percentage cytotoxicity,"L132 (Lung); L132, 1 nM",30.5 ± 4.1%
same,Percentage cytotoxicity,"L132 (Lung); L132, 10 nM",27.2 ± 3.1%
same,Percentage cytotoxicity,"L132 (Lung); L132, 100 nM",25.9 ± 2.6%
same,Percentage cytotoxicity,"L132 (Lung); L132, 1 μM",18.3 ± 2.9%
same,Percentage cytotoxicity,U87MG (Glioblastoma); 10 pM,0.0 ± 0.0%
same,Percentage cytotoxicity,U87MG (Glioblastoma); 100 pM,11.9 ± 4.1%
same,Percentage cytotoxicity,U87MG (Glioblastoma); 1 nM,21.8 ± 0.1%
same,Percentage cytotoxicity,U87MG (Glioblastoma); 10 nM,20.0 ± 0.0%
same,Percentage cytotoxicity,U87MG (Glioblastoma); 100 nM,21.4 ± 0.1%
same,Percentage cytotoxicity,U87MG (Glioblastoma); 1 μM,10.0 ± 0.0%
